Melting point data for 6 compounds are collected here from patent publication US7329680B2, “Heterocycle substituted carboxylic acids” (The Institute for Pharmaceutical Discovery, LLC, priority 2003, dated 2008).

Structures are written as SMILES.

For `O=C(O)[C@@H]1CSC(c2ccc(-c3ccc(-c4c(Cc5ccccc5)oc5ccccc45)cc3)cc2)N1` (mixture of isomers) [Example 38, (2RS,4R)-2-[4′-(2-Benzylbenzofuran-3-yl)biphen-4-yl]thiazolidine-4-carboxylic acid], the melting point was 148 °C (dec.).
`O=C(O)[C@@H]1CSC(c2ccc(-c3ccc(-n4ccc5ccccc54)cc3)cc2)N1` (stereo in doubt) [Example 27, 2-(4′-Indol-1-yl-biphen-4-yl)thiazolidine-4-carboxylic acid]: the melting point is 135 to 137 °C (dec.).
The value for `O=C(O)C(=O)Nc1cc(-c2ccc(-c3cccc4c3oc3ccccc34)cc2)cn(Cc2ccccc2)c1=O` [Example 4, N-[1-Benzyl-5-(4-dibenzofuran-4-yl-phenyl)-2-oxo-1,2-dihydro-pyridin-3-yl]-oxalamic acid] was 220 to 223 °C.
The value for `CCc1ccc(-c2sc(NC(=O)c3ccc(S(=O)(=O)N4CCCC4C(=O)O)cc3)nc2-c2ccc(Cl)cc2)cc1` (stereo not drawn) [Example 5, 1-{4-[4-(4-Chloro-phenyl)-5-(4-ethyl-phenyl)-thiazol-2-ylcarbamoyl]-benzenesulfonyl}-pyrrolidine-2-carboxylic acid] was 289 to 292 °C; that for `O=C(O)CCNc1cc(-c2ccc(-c3cccc4c3oc3ccccc34)cc2)nc(Cc2ccccc2)n1` [Example 45, 3-[2-Benzyl-6-(4-dibenzofuran-4-yl-phenyl)-pyrimidin-4-ylamino]-propionic acid] was 205 °C (dec.); that for `O=C(O)CCNc1cc(-c2ccc(-c3cccc4c3oc3ccccc34)cc2)nc(-c2ccccc2)n1` [Example 46, 3-[2-phenyl-6-(4-dibenzofuran-4-yl-phenyl)-pyrimidin-4-ylamino]-propionic acid] was 210 °C (dec.).

By melting point is commonly meant the temperature of the solid-liquid transition.
